This assay addresses T1, AR-TIF2 PPI (Homo sapiens, UniProt P10275).
T1 construct: AR-LBD residues (662-919) were incorporated into one biosensor; expressed in transfected cells; host or cells: U-2 OS osteosarcoma cells, coinfected with recombinant adenoviruses
T1 sequence (P10275 662-919): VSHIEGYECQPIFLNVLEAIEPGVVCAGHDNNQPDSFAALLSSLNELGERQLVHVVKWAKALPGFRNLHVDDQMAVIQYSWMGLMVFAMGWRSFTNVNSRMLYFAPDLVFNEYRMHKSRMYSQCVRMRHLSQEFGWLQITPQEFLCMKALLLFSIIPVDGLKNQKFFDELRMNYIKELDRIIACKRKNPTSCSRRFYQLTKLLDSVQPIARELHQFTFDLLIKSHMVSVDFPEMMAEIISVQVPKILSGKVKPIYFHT
Briefly: AR-TIF2 PPIB HCS assay: disruption of preformed DHT-induced AR-TIF2 PPI complexes (DHT then compound). The following applies: U-2 OS cells. It counts as cell-based. How it is done:
AR-TIF2 Protein-Protein Interaction Biosensor Assay: The AR-TIF2 PPIB HCS assay was performed in U-2 OS osteosarcoma cells as described previously (Fancher et al., Assay Drug Dev Technol. 2016, 14:453-477; Fancher et al., Assay Drug Dev Technol. 2018, 16:297-319; Hua et al., Assay Drug Dev Technol. 2014, 12:395-418; Hua et al., Methods Mol Biol. 2018, 1683:211-227). Briefly, U-2 OS cells were coinfected with recombinant adenovirus biosensor expression constructs and seeded at 2,500 cells per well in 384-well collagen-coated microplates (Greiner Bio-One #781956) and plates were incubated overnight at 37° C. in 5% CO2 and 95% humidity. […] After the appropriate time, assay plates were fixed by transfer of 50 μL of pre-warmed (37° C.) 7.4% formaldehyde and 2 μg/mL Hoechst 33342 in PBS and incubation at room temperature for 30 minutes. Liquid was aspirated, plates were washed twice with 85 μL PBS, leaving the final wash in the plate. Plates were sealed with adhesive aluminum plate seals, and fluorescent images of three fields of view were acquired in the DAPI (Hoechst stained nuclei), FITC (TIF2-GFP) and Texas Red (AR-RFP) channels on an ImageXpress® Micro (IXM) automated HCS platform (Molecular Devices LLC, Sunnyvale, CA) using a 10× Plan Fluor 0.3 NA objective. Images were analyzed using the Translocation Enhanced (TE) image analysis module of the MetaXpress® software (Molecular Devices, LLC, San Jose, CA) as described previously (Fancher et al., Assay Drug Dev Technol. 2016, 14:453-477; Fancher et al., Assay Drug Dev Technol. 2018, 16:297-319; Hua et al., Assay Drug Dev Technol. 2014, 12:395-418; Hua et al., Methods Mol Biol. 2018, 1683:211-227).
For the 96-well AR-LBD H^3-DHT radioligand binding assay, eight minimum and maximum plate control wells were utilized to normalize the data. For the PC cell line growth inhibition assays the DMSO control data from the TO and T72 assay plates was used to assess the dynamic range of the T0 to T72 cell growth, and to calculate S:B ratios and Z′-factor coefficient statistics for the assay signal window (T0 to T72). To normalize the 72 h compound exposure PC growth inhibition data, the signals from the compound treated wells were processed and expressed as % of the T72 DMSO plate controls. IC50 and GI50 values for each of the bioassays were calculated using GraphPad Prism 9 software to plot and fit data to curves using the Sigmoidal dose response variable slope equation Y=Bottom+[Top-Bottom]/[1+10^(Log EC50−X)*HillSlope].
A positional AR-TFI2 protein-protein interaction biosensor (PPIB) assay was used to identify small molecules that inhibited DHT-induced formation of AR-TIF2 PPIs and/or disrupted pre-existing AR-TIF2 PPIs (Fancher et al., Assay Drug Dev Technol 2016, 14(8):453-477; Fancher et al., Assay Drug Dev Technol 2018, 16(6):297-319; Hua et al., Assay Drug Dev Technol 2014, 12:395-418; Hua et al., Methods Mol biol 2018, 1683:211-227). AR-LBD residues (662-919) were incorporated into one biosensor and TIF2 residues (725-840) containing the 3rd NR box LXXLL motif into the second interacting biosensor partner (Id.) The AR-TIF2 PPIB recapitulates the orthosteric ligand (OSL)-induced translocation of AR from the cytoplasm into the nucleus where PPIs with TIF2 result in colocalization of both biosensors in the nucleolus. Using three libraries, a total of 143,535 compounds were screened—a 10,000-compound ChemDiv PPI focused diversity library, a 50,000-compound ChemBridge diversity library, and a 83,535-compound library provided by the NCI's Chemical Biology Consortium. The 10K and 50K diversity libraries were subsets of 142K and 810K parent libraries, enabling screening of a representative subset of >1×10^6 compounds. AR-TIF2 PPI inhibitor and disruptor actives were confirmed in the HCS assay and counter screens designed to identify and exclude nuisance/interference or non-selective compounds (Fancher et al., Assay Drug Dev Technol 2018, 16(6):297-319). […]

Setting [1] is: 25 nM DHT, read-out: Disruption of DHT-induced AR-TIF2 PPIs IC50.
[2] abbreviates: DHT then compound, read-out: D then C IC50.

SMILES strings stand for the structures. Read-outs that look alike come from different tables or passages of the source. Where only a bound is given, the exact number is not on record here.

With `Cc1ccccc1-c1cc(O)c2c(c1)CN(c1nc(C(N)=O)cs1)CCO2` [Compound S1-1], the IC50 (commonly the concentration that inhibits the measured activity by half) under setting [1] was 24.8 µM. For the compound `Cc1nc(N)cc(N2CCOc3c(O)cc(-c4ccccc4C)cc3C2)n1` [Compound S1-2], the concentration for half-maximal inhibition (IC50) under setting [2] was 63 µM. On the same count and under the same terms, as for `Cc1ccccc1-c1cc(O)c2c(c1)CN(c1nccs1)CCO2` [Compound S1-3], the figure is 41.8 µM.

On to `Cc1ccccc1-c1cc(O)c2c(c1)CN(c1cc(N)ncn1)CCO2` [Compound S1-4], for which the IC50 under setting [2] was > 100 µM and the IC50 under setting [1] is > 100 µM.

`COc1cc(-c2ccc(C)s2)cc2c1OCCN(c1nc(C(N)=O)cs1)C2` [Compound S1-5]: the concentration for half-maximal inhibition (IC50) is, setting by setting: under setting [2], > 100 µM; under setting [1], > 100 µM. Regarding `Cc1nsc(NC(=O)N2CCC(Sc3ccccc3C)CC2)n1` [Compound S2-6], the concentration for half-maximal inhibition (IC50) runs as follows: under setting [2], 5.8 µM; under setting [1], 5.64 µM. For the compound `Cc1nsc(NC(=O)N2CCC(Cn3ccnc3)CC2)n1` [Compound S2-7], the IC50 under setting [2] is > 100 µM and the IC50 under setting [1] was > 100 µM. As for `Cc1c(-c2ccccc2F)[nH]c2ccc(CNC(=O)CCc3cn[nH]c3)cc12` [Compound S3-11], under setting [1], the IC50 turned out to be 26.1 µM. For the compound `Cc1c(-c2ccccc2F)[nH]c2ccc(CNC(=O)CCc3cnccn3)cc12` [Compound S3-12], the IC50 under setting [2] is 24.7 µM. Still for that read-out and setting: as for `CC(=O)NCCC(=O)NCc1ccc2[nH]c(-c3ccccc3F)c(C)c2c1` [Compound S3-13], the figure is 37.6 µM; as for `Cc1c(-c2ccccc2F)[nH]c2ccc(CNC(=O)c3ccc(CO)o3)cc12` [Compound S3-14], 16 µM; as for `Cc1c(-c2ccc(F)cc2)[nH]c2ccc(CNC(=O)c3ccc(CO)o3)cc12` [Compound S3-15], 30.6 µM. Same read-out and setting: under `Cc1cccc2c(-c3ccc(O)c(F)c3)c[nH]c12` [Compound S3-17] stands 8.8 µM. As to `CNC(=O)c1ccc(-c2c[nH]c3c(C)cccc23)cc1` [Compound S3-21], the IC50 runs as follows: under setting [2], > 100 µM; under setting [1], > 100 µM.
